Data published in patent US20100210649A1, “PYRIDAZINONES AND FURAN-CONTAINING COMPOUNDS” (Sloan-Kettering Institute for Cancer Research, priority 2006, published 2010).
Like-named read-outs stand apart in the source and are kept apart here.

Key:
[1] = tested on: H827; experiment: Non Small Cell Lung Cancer proliferation assay (Alamar Blue reduction), H827; type: cell-based
Method: […] are grown and maintained in Corning 175 cm2 flasks in RPMI 1640 media supplemented with 10% FBS, 1% antibiotic solution, 1% additional glutamine and pyruvate. These cells have a doubling time of 1-2 days. All cell types are adherent and grow in colonies. The cells should be kept at a density between 50,000 cells/mL -500,000 cells/mL to provide for optimum growth and adequate nutrition. The cell line should be maintained at 37° C. in a humidified atmosphere with 5% CO2 in a sterile cell culture incubator.
Non Small Cell Lung Cancer Proliferation Assay. To perform the assay, the Non Small Cell Lung Cancer lines are diluted in media and plated into 384 well microplates at a final density of 250 cells in […]. To ensure consistency and minimal pipetting error, the cells are plated using the Multidrop 384 with the following settings: Rocker Switch set at 384, Volume 45 and Column 24.
Low Controls for this assay are made by treating Non Small Cell Lung Cancer cells with 5 ul of staurosporine at 250 uM in 10% DMSO and 1% SDS. [Final concentration in this assay is 25 uM staurosporine in 1% DMSO and 0.1% SDS.]
High Controls for this assay are made by treating Non Small Cell Lung Cancer cells with 5 ul of 10% DMSO. [Final concentration in this assay is 1% DMSO].
The remaining wells of the 384 microplate may be treated with different compounds depending on the study. Important Note: All compounds for testing in this assay should be done at the final concentration of 1% DMSO.
After addition, the cells are placed in cell culture incubator at 37° C. for 48 hours for complete treatment.
After drug treatment, cytotoxicity is measured by Alamar Blue reduction. 5 μL of Alamar Blue is added to the 384 microplates using the Flexdrop.
The cells are incubated for 48 hours at 37° C. to complete the Alamar Blue reduction.
The final step in the assay is to measure the amount of Alamar Blue reduction. […] The Alamar Blue fluorescence is measured at an excitation of 530 nm and emission of 590 nm.
For the NSCLC project, the cell based assay was screened against a small molecule library of approximately 200,000 compounds. The compound library is stored in our automated robotic freezer (Biophile) at −20° C. in 100% DMSO. Compound freeze and thaw cycles are kept to a minimum. Compounds for use are diluted into the appropriate concentration and plated into 384 well microplates using our custom built low volume 384-well head tool (TPS 384, Apricot Designs Inc., CA, USA). This assay was performed on a fully automated linear track robotic platform (CRS F3 Robot System, Thermo Electron Corp., Ontario, Canada) utilizing several integrated peripherals for plate handling, liquid dispensing, and readout detection. First, non-small cell lung cancer cell lines are dispensed into 384 well microplates (Corning #3712 Tissue Culture Treated Plate, Corning, N.Y., USA) with 5 μL of test compounds at 100 uM in 10% DMSO for screening studies or […] in 10% DMSO to 50 nM in 10% DMSO for dose response studies. The microplates are then placed at 37° C. for 48 hours to complete treatment of cells with compounds. Next, 5 ul of alamar blue was added using a liquid dispenser (Flexprop Precision Dispenser, Perkin Elmer, Mass., USA) and incubated for 48 hours at 37° C. The alamar blue prompt fluorescence was measured on Victor V (Victor^3 V, Perkin Elmer, Mass., USA) and output data files were loaded into ORIS (Oncology Research Informatics System, MSKCC, NY, USA), a screening data acquisition and analysis platform.

[2] = tested on: H2030 cells; experiment: [3H]-thymidine incorporation assay, H2030; type: cell-based, human; settings: increasing concentrations, 24 hours
Method: FIG. 1. SKI-267077 blocks DNA synthesis. H2030 cells were treated with the indicated concentration of SKI-267077 for 24 h and then the incorporation of ^3H-thymidine into DNA was determined
(§1) [^3H]-thymidine incorporation assay. Cells were seeded in 12-well plates at a density of 100 000 cells/well and treated with inhibitors for 24 hours. H3-thymidine (3 μCi/mL) was then added for 3 hours. Cells were washed twice with PBS, fixed with cold 10% TCA (in PBS) for 30 min then lysed with 0.5% NaOH/0.5% SDS. DNA was scraped from the wells and the amount of H3-thymidine incorporated determined by liquid scintillation counting.
SKI-267077 inhibits DNA synthesis. […] H2030 cells were treated with increasing concentrations of SKI-267077 for 24 hours and then incorporation of ^3H-thymide into DNA determined (FIG. 1).

[3] = tested on: MAPK isoforms ERK1 and ERK2; experiment: Phosphoprotein array, ERK1 and ERK2; type: cell-based; settings: cells treated for 24 hours; MAPK signaling pathway
Method: FIG. 43A-43C. A phosphoprotein array was used to determine which signaling pathways were affected by treatment of cells with SKI-267077. […] A phosphoprotein array (R and D Systems) was used to measure the level of phosphorylation of cellular proteins. Protein phosphorylation was determined according to the manufacturer's instructions.

[4] = tested on: caspase 3/7; experiment: Caspase 3/7 enzyme activity assay in cell extracts; type: cell-based, human; settings: H2030 cells, 1 μM, 48 h, whole cell extracts
Method: FIG. 3. Activation of caspase 3/7 by SKI-267077. H2030 cells were treated with 1 μM SKI-267077 for 48 h and then caspase 3/7 activity measured in whole cell extracts.
Caspase 3/7 enzyme activity assay. Apoptosis was determined by measuring the enzymatic activity of caspase 3/7 in cell homogenates. Cells were plated at a density of 10,000 cells per well in 96-well plates and treated immediately with drugs for 24-72 h. Caspase 3/7 activity will be determined in cell extracts using Z-DEVD-R110 (rhodamine 110 conjugated to the caspase substrate Z-DEVD) as substrate (Promega). The fluorescence of the cleaved substrate was measured using a micro-titer fluorescence plate reader (Ex: 499 nm, Em: 521 nm).
SKI-267077 stimulates the enzymatic activity of caspase 3/7.

[5] = tested on: H1975; experiment: [3H]-thymidine incorporation assay, H1975; type: cell-based, human; settings: H1975, mutant EGFR
Method: FIGS. 41A-41B. SKI-267077 inhibits DNA synthesis. SKI-267077 was used to elucidate the mechanism by which this agent inhibits cell growth.
as §1

[6] = tested on: NHBE (normal human bronchiolar epithelial cells); experiment: cells
[7] = Homo sapiens; read-out: Dose Response (uM) H827
[8] = Homo sapiens, read-out: Dose Response (uM) H827
[9] = Homo sapiens, NHBE, read-out: IC50(uM) NHBE

Molecule `Cc1cc(C)cc(-n2ncc(Cl)c(Cl)c2=O)c1` [compound 257020] has an IC50 [1, 7] of 0.3 µM.
`O=c1c(Cl)c(Cl)cnn1-c1cccc(C(F)(F)F)c1` [compound 176729] gave an IC50 [1, 7] of 0.17 µM.
Work on `Cc1cccc(-n2ncc(Cl)c(Cl)c2=O)c1` [compound 104122, 4,5-dichloro-2-m-tolyl-2H-pyridazin-3-one] yielded an IC50 [1, 8] of 0.09 µM.
`O=c1c(Br)c(Br)cnn1-c1ccccc1` [compound 257015] gave an IC50 [1, 7] of 0.17 µM.
`O=c1c(Cl)c(Cl)cnn1-c1ccc(Cl)cc1Cl` [compound 267077] was tested, and the “incorporation of 3H-thymidine into DNA (DNA synthesis)” value [2] was “dose-dependent decrease in DNA synthesis”, the “phosphorylation of ERK1 and ERK2” value [3] was “reduced phosphorylation of the MAPK isoforms ERK1 and ERK2” and the “activity of caspase 3/7” value [4] was “increase in the activity of caspase 3/7”. The DNA synthesis [5] was “dose-dependent reduction in DNA synthesis”.
For `Cc1ccc(-n2ncc(Cl)c(Cl)c2=O)cc1` [compound 257016], the IC50 [1, 7] was 0.29 µM.
`Cc1cccc(NC(=O)c2ccc([N+](=O)[O-])o2)c1` [compound 71762] gave an IC50 ([6]; Homo sapiens, NHBE, read-out: IC50(uM) NHBE, phenylfuran-2-carboxamide SAR summary) of 15.8 µM and an IC50 ([6]; read-out: IC50(uM) NHBE, phenylfuran-2-carboxamide SAR summary) of 14.8 µM.
`O=c1c(Cl)c(Cl)cnn1-c1ccccc1` [compound 257014] was tested, and the IC50 [1, 8] was 0.24 µM.
Molecule `Cc1ccc(NC(=O)c2ccc([N+](=O)[O-])o2)cc1` [compound 98697] has an IC50 [6, 9] of 29.4 µM.
Molecule `Cc1ccc(-n2ncc(Cl)c(Cl)c2=O)cc1C` [compound 257019] has an IC50 [1, 7] of 0.32 µM.
With `Cc1cccc(-n2ncc(Cl)c(Cl)c2=O)c1C` [compound 257018] the IC50 [1, 7] was 0.5 µM.
`O=C(Nc1ccc(Cl)cc1)c1ccc([N+](=O)[O-])o1` [compound 98698, 5-nitro-furan-2-carboxylic acid (4-chloro-phenyl)-amide] gave an IC50 [6, 9] of 21.4 µM.
